Legend:
D-threonine-aldolase = assay: Agents inhibiting, activating or stabilizing the activity of the novel enzyme; type: biochemical
L-allothreonine-aldolase = assay: Inhibitants, stabilizers and coenzyme of L-allothreonine-aldolase; type: biochemical

| effect of the agent on the activity of the novel enzyme (D-threonine-aldolase) | effect of the agent on L-allothreonine-aldolase (L-allothreonine-aldolase) | coenzyme (L-allothreonine-aldolase) | SMILES |
| --- | --- | --- | --- |
| activated and stabilized | Stabilizers | – | O[C@H](CS)[C@H](O)CS (racemic) [dithiothreitol] |
| inhibited | Inhibitants | – | [Ag+] [Ag^+] |
| activated and stabilized | – | – | [Co+2] [Co^2+] |
| inhibited | Inhibitants | – | [Cu+2] [Cu^2+] |
| activated and stabilized | – | – | [Fe+2] [Fe^2+] |
| activated and stabilized | – | – | [Mg+2] [Mg^2+] |
| activated and stabilized | – | – | [Mn+2] [Mn^2+] |
| inhibited | – | – | [Pd+2] [Pd^2+] |
| inhibited | – | – | [Zn+2] [Zn^2+] |
| activated and stabilized | Stabilizers | – | OCCS [mercaptoethanol] |
| – | – | Coenzyme | Cc1ncc(COP(=O)(O)O)c(C=O)c1O [pyridoxal-5'-phosphate] |

| SMILES | effect of the agent on the activity of the novel enzyme (D-threonine-aldolase) | effect of the agent on L-allothreonine-aldolase (L-allothreonine-aldolase) | coenzyme (L-allothreonine-aldolase) |
| --- | --- | --- | --- |
| [Hg+2] [Hg^2+] | inhibited | Inhibitants | – |
| NO [hydroxylamine] | inhibited | – | – |
| O=C(O)c1cc[c]([Hg][Cl])cc1 [p-chloromercuribenzoate] | inhibited | – | – |
| O=S([O-])O.[Na+] [sodium hydrogen sulfite] | activated and stabilized | – | – |
| O=S([O-])[O-].[Na+].[Na+] [sodium sulfite] | activated and stabilized | Stabilizers | – |

— US4492757A, “Process for preparing L-threonine” (Denki Kagaku Kogyo Kabushiki Kaisha, priority 1981, dated 1985)
